Laboratory results as given in patent publication US20240325461A1, “COMBINATION THERAPIES FOR THE TREATMENT OF DISEASES” (Research Development Foundation, priority 2023, published 2024).

Legend:
[1] = curative model; treatment started 2 months after ovariectomy; alendronate 80 μg/kg/week s.c.; HI P. goldsteinii by gavage every second day
[2] = system: Procollagen Type-1 N Terminal Propeptide (P1NP); assay: Plasma bone formation marker P1NP (ELISA); type: in vivo, mice; details: P. goldsteinii 1.5 OD/ml, 200 μl every second day, given with alendronate 80 μg/kg BW once a week
Procedure: Supplementation of P. goldsteinii increases secretion the bone formation marker P1NP, measured at Day 29 (FIG. 18A), or Day 50 (FIG. 18B) after the beginning of the treatment.
Measuring plasma bone turnover markers: After 5 h fasting (during the treatment), blood samples were collected from the tail of the mice with microvette capillary tubes containing EDTA and plasma was isolated after centrifuging 10000 g for 10 minutes. Plasma samples are collected during sacrifice (at the end of experiment) by taking 500 μl of blood from terminally anesthetized mice in tubes with 10 μl of […] EDTA, 4 μl of aprotinin (1.3%) and 4 μl of DPP-IV (10 mM), followed by centrifugation as described before. N-terminal pro-collagen type 1 extension pro-peptide (PINP) was measured with an ELISA kit (cat no:AC-33F, Immunodiagnostic Systems) according to manufacturers' instructions.

[3] = system: ovariectomized female mice; assay: Intraperitoneal insulin tolerance test, curative model; type: in vivo, C57BL/6J mice; details: test on day 52 of administration
Procedure: (§1) A curative mouse model for osteoporosis was used for experiments, as follows. 16-week old female C57Bl/6J mice were ovariectomized and left for 2 months to develop the symptoms of osteoporosis and postmenopausal weigh gain and glucose intolerance. Administration of the respective treatment was initiated following these 2 months after the ovariectomies, i.e, once the mice already developed the symptoms of the respective metabolic disease.
Insulin sensitivity (normalized values) was measured by intraperitoneal insulin tolerance test of ovariectomized female mice, administered with the respective treatment starting 2 months flowing the surgery, considered as day 0. Test is performed on day 52 after staring the administration.
Ovariectomy: 16 weeks old C57Bl/6J female mice, obtained through Janvier, were be anesthetised with Xylazin/Ketamin (injection of 120 μl of a mixture of 120 mg/kg ketamine and 16 mg/kg xylazine) and shaved below the ribs on the back side. Betadine was be applied to the area for appropriate disinfection. After a 1-2 cm incision through the skin and the muscle layer just below the ribs, the ovary was localized, the fallopian tube ligated with dissolving suture and the ovary removed. The muscle layer was sutured with dissolving suture, the wound closed with staples and disinfected. The same procedure was/will be performed on the other side. […]

[4] = system: ovariectomized female mice; assay: 3-point bending test of femur, curative model; type: in vivo, C57BL/6J mice; details: postmortem, day 60
Description: as §1
Ovariectomy: 16 weeks old C57Bl/6J female mice, obtained through Janvier, were be anesthetised with Xylazin/Ketamin (injection of 120 μl of a mixture of 120 mg/kg ketamine and 16 mg/kg xylazine) and shaved below the ribs on the back side. Betadine was be applied to the area for appropriate disinfection. After a 1-2 cm incision through the skin and the muscle layer just below the ribs, the ovary was localized, the fallopian tube ligated with dissolving suture and the ovary removed. The muscle layer was sutured with dissolving suture, the wound closed with staples and disinfected. The same procedure was/will be performed on the other side. A dose of Tamgesic was/will be administered 4 hours after the surgery, and the staples were removed 7 days after the surgery under isoflurane anesthesia. The sham-operated animals underwent the same procedure, without ligating the fallopian tube and the ovary excision. All mice were then kept for additional 2 months after the ovariectomies before starting the respective curative treatments.
Microbiota transplantation: Lactobacillus gasseri (DSM 20604) and Parabacteroides goldsteinii (DSM 19948) were pushased from DSMZ. Lactobacillus reuteri (PTA-6475) was obtained from ATCC. […] Freshly prepared bacteria were diluted in anaerobic PBS to a final concentration equivalent to 1.5 OD/ml at 600 nm. 200 ul of this suspension was gavaged every second day to ovariectomized mice, starting 2 months post-surgery for 38 day. From day 38 of the gavage until the day od sacrifice at day 60 the concentration was equivalent to 2 OD/ml at 600 nm, of which 200 ul was gavaged.
The amount administered was 80 μg/kg body weight once per week with subcutaneous injection, in total amount of 100-200 μl per injection.

SMILES: NCCCC(O)(P(=O)(O)O)P(=O)(O)O [alendronate]
- Body weight gain [1]: did not alter the body weight
- P1NP levels after 50 days of treatment [2]: reduction in P1NP levels
- Insulin sensitivity (intraperitoneal insulin tolerance test) [3]: unaffected
- Elastic energy of femurs (femur metaphysis, FIG. 10) [4]: no changes
- Elastic energy, femur midshaft [4]: No changes
- Stiffness, femur metaphysis [4]: corrected ovariectomy induced decreases in stiffness
- Stiffness, femur midshaft [4]: No changes
- Ultimate stress, femur metaphysis [4]: not observed to result in a statistically significant increase
- Ultimate stress, femur midshaft [4]: not observed to result in improvements
